Reference: publication PMC5983544, “Muscarinic M5 receptors modulate ethanol seeking in rats” (Neuropsychopharmacology, 2018)

Experiments:
rat M1 mAChR [1] = target: T1, rat M1 mAChR (Rattus norvegicus, UniProt P08482); test: [3H]NMS equilibrium binding in whole CHO-rM1 cells; conditions: rM1, [3H]NMS binding
T1 construct: host or cells: FlpIn CHO cells (Invitrogen)
T1 sequence (P08482 1-460): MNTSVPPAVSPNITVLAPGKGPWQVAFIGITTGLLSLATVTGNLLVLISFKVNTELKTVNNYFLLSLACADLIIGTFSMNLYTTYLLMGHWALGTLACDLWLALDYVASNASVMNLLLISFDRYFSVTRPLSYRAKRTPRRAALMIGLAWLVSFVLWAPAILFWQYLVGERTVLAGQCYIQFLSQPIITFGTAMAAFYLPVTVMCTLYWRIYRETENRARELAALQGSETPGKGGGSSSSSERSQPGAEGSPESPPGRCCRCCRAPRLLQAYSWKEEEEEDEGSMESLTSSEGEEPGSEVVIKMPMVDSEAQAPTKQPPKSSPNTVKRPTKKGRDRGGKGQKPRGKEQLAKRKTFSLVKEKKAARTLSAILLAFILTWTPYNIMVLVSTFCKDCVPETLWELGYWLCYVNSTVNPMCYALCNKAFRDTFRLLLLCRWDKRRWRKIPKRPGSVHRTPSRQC
Experimental: (§1) Rat mAChR subtypes (rM1–rM5; Origene) and human cannabinoid 1 receptor (hCB1; ref. [24]) constructs were isogenically integrated into FlpIn CHO cells (Invitrogen) and cells were selected in the presence of […] hygromycin B at 37 °C, 5% CO2, as previously described for the human M1 mAChR [25]. All cells were sub-cultured and seeded as previously described for the CHO-hM5 cells.
(§2) [^3H]NMS equilibrium binding assays in CHO-rM1 to CHO-rM5 cells were performed as previously described for CHO-hM5 cells. For [^35S]GTPγS binding, CHO-rM2 and CHO-rM4 cell membranes were prepared as described in Supplementary information. Membrane [^35S]GTPγS binding was performed as described in ref [26]., except GDP and [^35S]GTPγS concentrations were 1 μM and 0.3 nM, respectively. [^3H](+)-pentazocine binding was performed as described in ref. [27].

rat M2 mAChR = target: T2, rat M2 mAChR (Rattus norvegicus, UniProt P10980); test: [3H]NMS equilibrium binding in whole CHO-rM2 cells; conditions: rM2, [3H]NMS binding
T2 construct: host or cells: FlpIn CHO cells (Invitrogen)
T2 sequence (P10980 1-466): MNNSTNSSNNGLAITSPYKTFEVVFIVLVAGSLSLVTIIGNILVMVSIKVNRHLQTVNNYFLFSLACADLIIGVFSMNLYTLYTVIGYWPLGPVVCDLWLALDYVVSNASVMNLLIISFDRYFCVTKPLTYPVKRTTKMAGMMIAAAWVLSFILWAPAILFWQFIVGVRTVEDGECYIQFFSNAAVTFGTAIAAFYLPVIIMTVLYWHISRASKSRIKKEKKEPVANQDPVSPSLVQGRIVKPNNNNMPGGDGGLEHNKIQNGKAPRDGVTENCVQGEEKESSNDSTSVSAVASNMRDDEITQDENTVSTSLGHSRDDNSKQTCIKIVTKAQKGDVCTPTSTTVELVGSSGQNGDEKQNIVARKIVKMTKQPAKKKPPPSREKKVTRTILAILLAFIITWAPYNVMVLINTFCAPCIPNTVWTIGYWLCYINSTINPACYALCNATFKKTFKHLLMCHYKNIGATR
Experimental: as §1, §2

rat M1 mAChR [2] = target: T1, rat M1 mAChR; test: ACh-stimulated IP accumulation (IP-One) in CHO-rM1 cells; format: cell-based
Experimental: The IP-One assay kit (Cisbio) was used for the direct quantitative measurement of inositol phosphate (IP) accumulation in CHO-rM1, CHO-rM3 or CHO-rM5 cells, as described previously. The CHO-hCB1 pERK1/2 assays were performed as described in ref [24].

rat M4 mAChR = target: T3, rat M4 mAChR (Rattus norvegicus, UniProt P08485); test: ACh-stimulated [35S]GTPγS binding in CHO-rM4 cell membranes; format: biochemical; conditions: rM4, [35S]GTPγS binding
T3 construct: host or cells: FlpIn CHO cells (Invitrogen)
T3 sequence (P08485 1-478): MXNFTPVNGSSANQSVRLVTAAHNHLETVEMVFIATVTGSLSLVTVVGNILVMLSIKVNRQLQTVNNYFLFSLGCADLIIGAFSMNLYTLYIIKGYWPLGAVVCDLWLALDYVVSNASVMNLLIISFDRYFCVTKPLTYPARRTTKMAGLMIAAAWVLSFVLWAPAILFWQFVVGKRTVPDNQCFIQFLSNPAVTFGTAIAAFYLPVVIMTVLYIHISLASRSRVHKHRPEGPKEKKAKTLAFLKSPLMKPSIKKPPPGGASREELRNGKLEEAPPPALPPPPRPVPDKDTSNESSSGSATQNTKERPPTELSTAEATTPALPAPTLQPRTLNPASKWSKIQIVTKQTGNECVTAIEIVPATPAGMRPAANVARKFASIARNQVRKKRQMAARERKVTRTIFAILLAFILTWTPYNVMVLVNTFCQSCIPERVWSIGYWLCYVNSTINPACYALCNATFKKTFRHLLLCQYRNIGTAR
Experimental: as §2

σ1 receptor = target: T4, σ1 receptor (Mus musculus, UniProt O55242); test: [3H](+)-pentazocine binding in mouse brain homogenates; conditions: ML375 at concentrations up to 10 μM
T4 construct: from tissue; host or cells: mouse brain homogenates
T4 sequence (O55242 whole entry): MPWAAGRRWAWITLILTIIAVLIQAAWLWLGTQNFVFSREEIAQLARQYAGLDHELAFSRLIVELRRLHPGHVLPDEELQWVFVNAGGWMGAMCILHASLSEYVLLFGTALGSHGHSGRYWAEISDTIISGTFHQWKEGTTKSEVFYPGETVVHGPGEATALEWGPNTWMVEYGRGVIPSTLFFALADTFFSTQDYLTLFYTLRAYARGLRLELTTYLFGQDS
Experimental: as §2
Sigma-1 data are expressed as a percentage of specific [^3H]-(+)-pentazocine binding; ERK1/2 phosphorylation data are expressed percentage of the response to 10% FBS. Data represent the mean ± S.E.M. of 5-7 independent experiments performed in duplicate or triplicate.

[3] = Rat pharmacokinetics (intraperitoneal or oral dosing); format: in vivo
Experimental: ML375 pharmacokinetics after either intraperitoneal or oral dosing of rats was determined as described in Supplementary information.

[4] = tested on: ethanol-preferring (iP) rats; test: Ethanol self-administration after bilateral microinjection into dorsomedial (DM) striatum; format: in vivo, rat; conditions: intra-DM striatum, 105 pmol/hemisphere
From the text: Male iP rats (n = 14) were trained to self-administer 10% (v/v) ethanol via lever presses under FR3 operant conditions for approximately 12 weeks, in the presence of a 1-s light conditioned stimulus (CS+) occurring when the ethanol solution was delivered and an olfactory cue (S+ cue; one drop of vanilla essence, placed directly below the ethanol-paired (active) lever), as previously described, followed by surgery and testing. […] Rats were then given 7 days of ethanol self-administration before receiving the alternate treatment in a counterbalanced manner. For full details refer to Supplementary material.
Microinjections were performed as previously described; for full details see Supplementary material.
There was a main effect of lever (F(1, 15) = 59.4, P < 0.0001) but no effect of treatment (F(1, 15) = 0.22, P = 0.65) (Fig. 5b).

hM5 mAChR = conditions: same assay; cited from earlier work
[5] = single 30 mg/kg oral dose, plasma

effect on ACh affinity (rat M1 mAChR [1]): no significant effects
effect on ACh affinity (rat M2 mAChR): no significant effects
effect on ACh potency (rat M1 mAChR [2]): no significant effects
effect on ACh potency (rat M4 mAChR): no significant effects
effect on [3H](+)-pentazocine binding (σ1 receptor): no apparent effect
clearance ([3]; 20 mg/kg i.p., 24 h profile): low clearance
terminal half-life ([3]; 20 mg/kg i.p., 24 h profile): long terminal half-life
Kp at 24 h ([3]; brain and plasma, ip, 20 mg/kg i.p., 24 h timepoint, read-out: brain-to-plasma ratio): 3 ± 0.7
Cmax [3, 5]: 4.7 ± 0.7 µM
Tmax [3, 5]: 7 h
Structure (SMILES): O=C(c1ccc(F)c(F)c1)N1CCN2C(=O)c3ccccc3[C@@]12c1ccc(Cl)cc1 [ML375, (S)-9b-(4-chlorophenyl)-1-(3,4-difluorobenzoyl)-2,3-dihydro-1H-imidazo[2,1-a]isoi ndol-5(9bH)-one]
ethanol responding vs vehicle [4]: did not affect ethanol responding
binding affinity pKB (hM5 mAChR): 6.87
cooperativity with ACh binding, Log α (hM5 mAChR): −1.37
